According to patent US4160768A, “Anti-inflammatory 3-benzofuranyl imidazothiazole” (Diamond Shamrock Corporation, priority 1978, dated 1979):
Where a name gives a salt, the structure may show the parent alone. Read-outs that look alike come from different tables or passages of the source.

What was measured:
[1] = carrageenin-induced edema in the hind paw of the rat (modified Winter et al.); assay type: in vivo; details: for ED50: dose which reduced edema formation by about 25% or more vs mean control in 50% of the animals
Protocol: (§1) The procedure used for measuring the inhibition of carrageenin-induced edema is a slight modification of the method of Winter et al., Proc. Soc. Explt. Biol. Med. 111: 544 (1962). The device used for measurement of the paw volume is an adaptation of the water displacement procedure described by Adamkiewicz et al., Can. J. Biochem. Physiol. 33: 332 (1955). The above compounds were studied for their effectiveness in preventing the edema caused by the intraplantar injection of 0.05 ml of a sterile 1.0% solution of carrageenin. Compounds were administered orally, except when indicated as intraperitoneally (i.p.), one hour prior to the injection of the carrageenin into the left hind paw of rats. At peak swelling time (3 hours) the volume of edema was calculated by differential paw volumes.
Table I (in which Ph=phenyl) sets forth results obtained at the indicated dosages with compounds (or their salts) of the formula [drawing 8]
Following the procedure set forth in Example 4, hydrated compounds according to the following formula were evaluated for antiinflammatory effect with the results shown in Table II: [drawing 9]
Certain of the compounds of the invention were further tested to determine their ED50 values. […] Typical results of these tests appear in Table III.

[2] = adrenalectomized assay (carrageenin edema in adrenalectomized rats); assay type: in vivo, Adrenalectomized Sprague Dawley Male Rats; details: Rattus norvegicus, po, 3 h, read-out: % Reduction (adrenalectomized rats)
Protocol: as §1
Next, certain of the compounds were subjected to a secondary screen designated the adrenalectomized assay. In this series of tests, the method used was identical to that described above, except that the animals used were adrenalectomized several days prior to assay. Since the results in the nonadrenalectomized animals were similar to those obtained in the adrenalectromized animals, it can be inferred that the antiinflammatory activity of the test compounds was not caused by the release of endogeneous adrenocortical steriods.

[3] = adjuvant-induced arthritis test (Newbould); assay type: in vivo, rat
Description: Selected compounds were further subjected to advanced evaluations. Specifically, in view of the interesting activity of compounds 1 and 9, those compounds were further subjected to the adjuvant-induced arthritis test. This test requires one month (from day 0 to day 31). In the first seventeen days (0-17), the disease is in a developing stage, while for the remainder of the month (18-31) the disease is fully developed.
The method is essentially that of Newbould, Brit. J. Pharmacol. 21: 127, 1963. The test compounds were studied in the developing arthritis state and in the established arthritic state. Separate groups of twelve rats were administered the compounds orally using methylcellulose as the vehicle. In the study on the developing disease, administration of the test compounds begins on day 1 and on day 2 each animal is injected with 0.05 ml/kg of a 0.5% suspension of heat-killed Mycobacterium tuberculosis into the planter surface of the left hind paw. Foot volumes were measured by a water displacement device on the day of administration of the Mycobacterium and again on days 3, 10 and 17. The test compounds were administered once daily. Body weights were recorded daily and the animals were examined for the spread of the inflammation and the degree of secondary lesions. For study in the established disease, another group of rats are injected with the Mycobacterium and foot volumes are measured. After twenty days volumes are again measured and administration of the test compounds begins and continues for eleven days. Foot volume measurements are repeated on day 27 and day 31. The extent of the spread of the inflammation and the degree of lesions are recorded daily as are the body weights. The effect of the test compounds is measured by the percentage reduction in left hind paw volumes as compared to the hind paw volumes of the control groups.

[4] = Rattus norvegicus, po, 3 h, Table I, 50 mg/kg, oral, 1 h before carrageenin, 3 h, read-out: Reduction % (carrageenin edema)
[5] = Rattus norvegicus, po, 3 h, Table I, 25 mg/kg, oral, 1 h before carrageenin, 3 h, read-out: Reduction % (carrageenin edema)
[6] = Rattus norvegicus, po, 3 h, Table I, 40 mg/kg, oral, 1 h before carrageenin, 3 h, read-out: Reduction % (carrageenin edema)

SMILES: C1=C(c2ccccc2)N2CCN=C2S1 [Compound 1]
- inhibition in vivo at 50 mg/kg [1, 4]: 47%
- ED50 ([1]; Rattus norvegicus, po, 3 h): 25 mg/kg
- inhibition in vivo at 50 mg/kg [2]: 32%
- % reduction in swelling, hind paws ([3]; 20 mg/kg, day 3, developing (prophylactic)): 18%
- % reduction in swelling, hind paws ([3]; 20 mg/kg, day 10, developing (prophylactic)): 13%
- % reduction in swelling, hind paws ([3]; 20 mg/kg, day 17, developing (prophylactic)): 18%
- % reduction in swelling, hind paws ([3]; 20 mg/kg, day 20, developed (therapeutic)): 5%
- % reduction in swelling, hind paws ([3]; 20 mg/kg, day 27, developed (therapeutic)): 0%
- % reduction in swelling, hind paws ([3]; 20 mg/kg, day 31, developed (therapeutic)): 0%
- % reduction in swelling, hind paws ([3]; 40 mg/kg, day 3, developing (prophylactic)): 10%
- % reduction in swelling, hind paws ([3]; 40 mg/kg, day 10, developing (prophylactic)): 21%
- % reduction in swelling, hind paws ([3]; 40 mg/kg, day 17, developing (prophylactic)): 43%
- % reduction in swelling, hind paws ([3]; 40 mg/kg, day 20, developed (therapeutic)): 4%
- % reduction in swelling, hind paws ([3]; 40 mg/kg, day 27, developed (therapeutic)): 14%
- % reduction in swelling, hind paws ([3]; 40 mg/kg, day 31, developed (therapeutic)): 8%

SMILES: Cc1ccc(C2=CSC3=NCCN23)cc1C [Compound 2]
- inhibition in vivo at 50 mg/kg [1, 4]: 27%

SMILES: CSC1=C(C(C)(C)C)N2CCN=C2S1 [Compound 3, 2-methylthio-3-t-butyl-5,6-dihydro-4H-imidazo-[2,1-b] thiazole hydrobromide]
- inhibition in vivo at 50 mg/kg [1, 4]: 26%

SMILES: CCC1=C(c2ccccc2)N2CCN=C2S1 [Compound 4]
- inhibition in vivo at 25 mg/kg [1, 5]: 41%
- inhibition in vivo at 25 mg/kg [2]: 31%

SMILES: CCC1=C(c2ccc(Cl)cc2)N2CCN=C2S1 [Compound 5]
- inhibition in vivo at 25 mg/kg [1, 5]: 33%
- inhibition in vivo at 25 mg/kg [2]: 15%

SMILES: CC1=C(c2ccc(Cl)cc2)N2CCN=C2S1 [Compound 6]
- inhibition in vivo at 25 mg/kg [1, 5]: 45%
- inhibition in vivo at 25 mg/kg [2]: 19%

SMILES: Brc1ccc(C2=CSC3=NCCN23)cc1 [Compound 7]
- inhibition in vivo at 50 mg/kg [1, 4]: 70%

SMILES: CC(C)(C)C1=CSC2=NCCN12 [Compound 8]
- inhibition in vivo at 50 mg/kg [1, 4]: 56%
- inhibition in vivo at 25 mg/kg [2]: 23%

SMILES: CC1=CSC2=NCCN12 [Compound 9]
- inhibition in vivo at 50 mg/kg [1, 4]: 46%
- ED50 ([1]; Rattus norvegicus, po, 3 h): 20 mg/kg
- inhibition in vivo at 25 mg/kg [2]: 46%
- % reduction in swelling, hind paws ([3]; 24 mg/kg, day 3, developing (prophylactic)): 21%
- % reduction in swelling, hind paws ([3]; 24 mg/kg, day 10, developing (prophylactic)): 23%
- % reduction in swelling, hind paws ([3]; 24 mg/kg, day 17, developing (prophylactic)): 15%
- % reduction in swelling, hind paws ([3]; 24 mg/kg, day 20, developed (therapeutic)): 5%
- % reduction in swelling, hind paws ([3]; 24 mg/kg, day 27, developed (therapeutic)): 0%
- % reduction in swelling, hind paws ([3]; 24 mg/kg, day 31, developed (therapeutic)): 0%
- % reduction in swelling, hind paws ([3]; 50 mg/kg, day 3, developing (prophylactic)): 18%
- % reduction in swelling, hind paws ([3]; 50 mg/kg, day 10, developing (prophylactic)): 17%
- % reduction in swelling, hind paws ([3]; 50 mg/kg, day 17, developing (prophylactic)): 6%
- % reduction in swelling, hind paws ([3]; 50 mg/kg, day 20, developed (therapeutic)): 3%
- % reduction in swelling, hind paws ([3]; 50 mg/kg, day 27, developed (therapeutic)): 3%
- % reduction in swelling, hind paws ([3]; 50 mg/kg, day 31, developed (therapeutic)): 7%

SMILES: C1=C(c2cccc3ccccc23)N2CCN=C2S1 [Compound 10]
- inhibition in vivo at 50 mg/kg [1, 4]: 58%
- inhibition in vivo at 50 mg/kg [2]: 18%

SMILES: CC(C)(C)C1=CSC2=NCCN12 [Compound 11]
- Reduction (%) (carrageenin edema) ([1]; Table I, 50 mg/kg, oral, 1 h before carrageenin, 3 h, 50 mg/kg): 48%

SMILES: CC1CN2C(C(C)(C)C)=CSC2=N1 (stereo not drawn) [Compound 12]
- inhibition in vivo at 50 mg/kg [1, 4]: 54%

SMILES: CC1=CSC2=NC(C)CN12 (stereo not drawn) [Compound 13]
- inhibition in vivo at 50 mg/kg [1, 4]: 24%

SMILES: CC1=C(c2ccccc2)N2CCN=C2S1 [Compound 14]
- inhibition in vivo at 50 mg/kg [1, 4]: 49%

SMILES: CC1=C(c2ccccc2)SC2=NCCN21 [Compound 15]
- inhibition in vivo at 50 mg/kg [1, 4]: 53%

SMILES: CC1CN2C(c3ccc(Cl)cc3)=CSC2=N1 (stereo not drawn) [Compound 16]
- inhibition in vivo at 50 mg/kg [1, 4]: 58%
- inhibition in vivo at 50 mg/kg [2]: 16%

SMILES: CC1CN2C(c3ccc([N+](=O)[O-])cc3)=CSC2=N1 (stereo not drawn) [Compound 17]
- inhibition in vivo at 50 mg/kg [1, 4]: 48%
- inhibition in vivo at 50 mg/kg [2]: 60%

SMILES: CC1CN2C(c3ccc(Cl)c(Cl)c3)=CSC2=N1 (stereo not drawn) [Compound 18]
- inhibition in vivo at 50 mg/kg [1, 4]: 42%

SMILES: O=C(O)CC1=C(c2ccccc2)N2CCN=C2S1 [Compound 19, 3-phenyl-5,6-dihydro-4H-imidazo[2,1-b] thiazo-2-yl-acetic acid hydrobromide]
- inhibition in vivo at 100 mg/kg ([1]; Rattus norvegicus, ip, 3 h, Table I, 100 mg/kg i.p., 1 h before carrageenin, 3 h, read-out: Reduction % (carrageenin edema)): 24%

SMILES: Clc1ccc(C[N+]2=C3SC=C(c4ccccc4)N3CC2)cc1Cl [Compound 20]
- inhibition in vivo at 20 mg/kg ([1]; Rattus norvegicus, po, 3 h, Table I, 20 mg/kg, oral, 1 h before carrageenin, 3 h, read-out: Reduction % (carrageenin edema)): 36%

SMILES: Brc1ccc(C2=CSC3=NCCN23)cc1 [Compound 21]
- inhibition in vivo at 40 mg/kg [1, 6]: 49%

SMILES: C#CC[N+]1=C2SC=C(c3ccc(Br)cc3)N2CC1 [Compound 22]
- inhibition in vivo at 100 mg/kg ([1]; Rattus norvegicus, po, 3 h, Table I, 100 mg/kg, oral, 1 h before carrageenin, 3 h, read-out: Reduction % (carrageenin edema)): 36%

SMILES: C#CC(C)[N+]1=C2SC=C(c3ccc(Br)cc3)N2CC1 (stereo not drawn) [Compound 23]
- inhibition in vivo at 40 mg/kg [1, 6]: 27%

SMILES: ClCC=CC[N+]1=C2SC=C(c3ccc(Br)cc3)N2CC1 [Compound 24]
- inhibition in vivo at 60 mg/kg ([1]; Rattus norvegicus, po, 3 h, Table I, 60 mg/kg, oral, 1 h before carrageenin, 3 h, read-out: Reduction % (carrageenin edema)): 20%

SMILES: CC1=CSC2=NCCN12 [Compound 25]
- inhibition in vivo at 150 mg/kg ([1]; Rattus norvegicus, po, 3 h, Table I, 150 mg/kg, oral, 1 h before carrageenin, 3 h, read-out: Reduction % (carrageenin edema)): 44%

SMILES: C#CC[N+]1=C2SC=C(C)N2CC1 [Compound 26]
- inhibition in vivo at 40 mg/kg [1, 6]: 31%

SMILES: C1=C(c2cc3ccccc3o2)N2CCN=C2S1 [Compound 27, 3-(2-benzofuranyl)-5,6-dihydro-4H-imidazo[2,1-b] thiazole]
- inhibition in vivo at 40 mg/kg [1, 6]: 40%

SMILES: Clc1ccc(C2=CSC3=NCCCN23)cc1 [Compound 28]
- inhibition in vivo at 25 mg/kg [1, 5]: 29%

SMILES: CCC1=C(c2ccccc2)N2CCCN=C2S1 [Compound 29, 2-ethyl-3-phenyl-4,5,6,7-tetrahydrothiazole[3,2-a] pyrimidine hydrobromide]
- inhibition in vivo at 50 mg/kg [1, 4]: 76%
- inhibition in vivo at 25 mg/kg [2]: 18%

SMILES: C1=C(c2ccccc2)N2CCCN=C2S1 [Compound 30]
- inhibition in vivo at 40 mg/kg [1, 6]: 25%

SMILES: CC1=C(c2ccccc2)N2CCCN=C2S1 [Compound 31]
- inhibition in vivo at 40 mg/kg [1, 6]: 48%

SMILES: O=[N+]([O-])c1ccc(C2=CSC3=NCCCN23)cc1 [Compound 32]
- inhibition in vivo at 25 mg/kg [1, 5]: 20%

SMILES: CC1=C(c2ccc(Cl)cc2)N2CCCN=C2S1 [Compound 33]
- inhibition in vivo at 10 mg/kg ([1]; Rattus norvegicus, po, 3 h, Table I, 10 mg/kg, oral, 1 h before carrageenin, 3 h, read-out: Reduction % (carrageenin edema)): 22%

SMILES: OC1(c2ccccc2)CSC2=NCCN21 (stereo not drawn) [Compound 34]
- Reduction (%) (carrageenin edema) ([1]; Table II, 100 mg/kg, oral): 70%

SMILES: CC1SC2=NCCN2C1(O)c1ccccc1 (stereo not drawn) [Compound 35]
- Reduction (%) (carrageenin edema) ([1]; Table II, 150 mg/kg, oral): 68%

SMILES: OC1(c2ccc(Cl)cc2)CSC2=NCCN21 (stereo not drawn) [Compound 36]
- Reduction (%) (carrageenin edema) ([1]; Table II, 25 mg/kg, oral): 57%

SMILES: OC1(c2ccccc2)CSC2=NCCCN21 (stereo not drawn) [Compound 37]
- Reduction (%) (carrageenin edema) ([1]; Table II, 50 mg/kg, oral): 52%

SMILES: OC1(c2ccc(Cl)cc2)CSC2=NCCCN21 (stereo not drawn) [Compound 38]
- Reduction (%) (carrageenin edema) ([1]; Table II, 100 mg/kg, oral): 76%

SMILES: COc1ccc(C2(O)CSC3=NCCCN32)cc1 (stereo not drawn) [Compound 39]
- Reduction (%) (carrageenin edema) ([1]; Table II, 40 mg/kg, oral): 27%
